≈ marks a conversion by molar mass, not a printed value.

The subject of test [1] is Toxoplasma gondii RH strain. The test can be described thus: [3H]-uracil incorporation assay in VERO host cells. The following applies: Toxoplasma gondii, Vero; for IC50: read-out: IC50 anti-Tg; for activity at 0.98 µg/mL / activity at 1.95 µg/mL / activity at 3.91 µg/mL / activity at 7.81 µg/mL / activity at 15.63 µg/mL / activity at 20 µg/mL / activity at 25 µg/mL / activity at 31.25 µg/mL: read-out: Proliferation of Toxoplasma gondii RH strain ± SD.

For the next test, the system named is C. dubliniensis. In words: Broth microdilution MIC/MFC, clinical isolate. The format is cell-based. The conditions noted are these: Candida dubliniensis, C. dubliniensis clinical strain; for MFC: read-out: MFC; for MIC: read-out: MIC. From the text:
(§1) In the study of antifungal activity of the compounds 3a–3j, 15 clinical strains of different species of yeasts from Candida species, namely C. albicans, C. dubliniensis C. famata, C. inconspicua, C. krusei, C. tropicalis, C. glabrata, C. lambica, C. kefyr, C. lusitaniae, C. parapsilosis, C. guilliermondii, C. lusitaniae, C. pulcherrima and C. sake were also used. These fungi were isolated by the author (from Department of Pharmaceutical Microbiology of Medical University in Lublin, Poland) from different clinical materials, e.g., from upper respiratory tract of hospitalized patients including cancer patients (i.e., with non-small cell lung cancer or hematological malignancies). Some patients were after pre-operative or post-operative chemotherapy (treated with etoposide or cis-platin given in doses according to the standard procedures), patients with chronic hepatitis C (undergoing peginterferon and ribavirin therapy or without antiviral therapy), patients with diabetes, elderly people, aged of 65 years old or older, staying in close population, such as a care centre and people staying outside the home care. The Ethical Committee of the Medical University of Lublin approved the study protocol (No. KE-0254/75/2011). The isolates were identified by standard diagnostic methods—biochemical microtest, e.g., API 20C AUX, ID 32C, API Candida (bioMérieux) on the basis of assimilation of various substrates. All the used microbial cultures were first subcultured on nutrient agar or Sabouraud agar for bacteria and fungi, respectively. The RPMI 1640 with MOPS (for fungi) were inoculated with the suspensions of fungal species. Microbial suspensions were prepared in sterile saline (0.85% NaCl) with an optical density of 0.5 McFarland standard scale (Wiegand et al. [2008]). Samples containing examined compounds were dissolved in dimethyl sulfoxide (DMSO). Furthermore, fungal suspensions were put onto Petri dishes with solid media containing 2 mg/ml of the tested compounds followed incubation under appropriate conditions. The inhibition of microbial growth was judged by comparison with a control culture prepared without any sample tested. Nystatin (Sigma) was used as a reference antifungal compound. Subsequently MIC minimal inhibitory concentration (MIC) of the compounds was examined by the microdilution broth method, using their two-fold dilutions in RPMI 1640 broth with MOPS prepared in 96-well polystyrene plates. Final concentrations of the compounds ranged from 1000 to 0.0038 µg/ml. Microbial suspensions were prepared in sterile saline with an optical density of 0.5 McFarland standard. Next fungal suspension was added per each well containing broth and various concentrations of the examined compounds. After incubation, the MIC was assessed spectrophotometric as the lowest concentration of the samples showing complete fungal growth inhibition. Appropriate DMSO, growth and sterile controls were carried out. The medium with no tested substances was used as a control (Wiegand et al. [2008]). The minimal fungicidal concentration (MFC) are defined as the lowest concentration of the compounds that is required to kill a particular fungal species. MFC was determined by removing the culture using for MIC determinations from each well and spotting onto appropriate agar medium. The plates were incubated. The lowest compounds concentration with no visible growth observed was assessed as a fungicidal concentration. All the experiments were repeated three times and representative data are presented.
(§2) The MFC/MIC ratios were calculated in order to determine fungicidal (MFC/MIC ≤ 4) or fungistatic (MFC/MIC > 4) effect of the tested compounds (O’Donnell et al. [2010]).
On the technique in general: Broth dilution looks for growth in wells or tubes with falling amounts of substance.

A further test has as its system C. sake. The test can be described thus: Broth microdilution MIC/MFC, clinical isolate. The format is cell-based. The conditions noted are these: Fermentozyma sake, C. sake clinical strain; for MFC: read-out: MFC; for MIC: read-out: MIC.
Source text: as §1, §2

In another test the test system is C. famata. In words: Broth microdilution MIC/MFC, clinical isolate. The format is cell-based. The following applies: Debaryomyces hansenii, C. famata clinical strain; for MFC: read-out: MFC; for MIC: read-out: MIC.
Source text: as §1, §2

A further test deals with C. glabrata. The test can be described thus: Broth microdilution MIC/MFC, clinical isolate. The format is cell-based. The following applies: Nakaseomyces glabratus, C. glabrata clinical strain; for MFC: read-out: MFC; for MIC: read-out: MIC.
Source text: as §1, §2

Another test concerns C. lambica. The test can be described thus: Broth microdilution MIC/MFC, clinical isolate. The format is cell-based. The following applies: Pichia fermentans, C. lambica clinical strain; for MFC: read-out: MFC; for MIC: read-out: MIC.
Source text: as §1, §2

The subject of another test is C. pulcherrima. In words: Broth microdilution MIC/MFC, clinical isolate. In kind it is cell-based. The conditions noted are these: C. pulcherrima clinical strain; for MFC: read-out: MFC; for MIC: read-out: MIC.
Source text: as §1, §2

The next test relates to C. kefyr. In words: Broth microdilution MIC/MFC, clinical isolate. The following applies: Kluyveromyces marxianus, C. kefyr clinical strain; for MFC: read-out: MFC; for MIC: read-out: MIC. In kind it is cell-based.
Source text: as §1, §2

As usually defined, the IC50 is the midpoint of a concentration-inhibition curve. For orientation: MIC means the smallest concentration in the dilution series that meets the test's criterion for growth inhibition. Turning to `Fc1ccc(-c2csc(N/N=C/C3CC3)n2)cc1` [Compound 3a, (E)-2-(2-(Cyclopropylmethylene)hydrazinyl)-4-(4-fluorophenyl)thiazole], in test [1], the IC50 amounted to 18.1 µg/mL (≈ 69.2 µM), the activity at 0.98 µg/mL was 95.4 ± 2.41%, the activity at 1.95 µg/mL amounted to 97.9 ± 7.49% and the activity at 3.91 µg/mL was 96.16 ± 0.61%. For the same molecule, in test [1], the activity at 7.81 µg/mL was found to be 84.89 ± 0.78%, the activity at 15.63 µg/mL amounted to 49.2 ± 3.59%, the activity at 20 µg/mL was found to be 45.6 ± 5.64% and the activity at 25 µg/mL came to 42.2 ± 0.91%. Moreover, the activity at 31.25 µg/mL in test [1] is 28.2 ± 5.7%. Further, in the test on C. dubliniensis, the MFC turned out to be 3.91 µg/mL (≈ 15 µM) and the MIC stood at 1.95 µg/mL (≈ 7.46 µM). Besides, in the test on C. sake, the MFC came out at 15.6 µg/mL (≈ 59.8 µM) and the MIC was determined as 3.91 µg/mL (≈ 15 µM). For the same molecule, in the test with C. famata, the MFC is 62.5 µg/mL (≈ 239 µM) and the MIC worked out at 7.81 µg/mL (≈ 29.9 µM).
`Fc1ccc(-c2csc(N/N=C/C3CC3)n2)c(F)c1` [Compound 3g, (E)-2-(2-(Cyclopropylmethylene)hydrazinyl)-4-(2,4-difluorophenyl)thiazole]: in test [1], the activity at 0.98 µg/mL was found to be 105 ± 9.98%, the activity at 1.95 µg/mL was 91.8 ± 1.12%, the activity at 3.91 µg/mL came to 81.4 ± 1.6% and the activity at 7.81 µg/mL was 78.6 ± 4.6%. In test [1], the activity at 15.63 µg/mL is 58.1 ± 2.94% and the activity at 20 µg/mL is 60.9 ± 3.81%. In the test with C. glabrata, the MFC was above 1000 µg/mL and the MIC came out at 15.6 µg/mL (≈ 55.9 µM). For the same molecule, in the test with C. lambica, the MFC is above 1000 µg/mL and the MIC amounted to 125 µg/mL (≈ 448 µM). Moreover, in the test on C. dubliniensis, the MFC came out at 0.48 µg/mL (≈ 1.72 µM) and the MIC amounted to 0.24 µg/mL (≈ 0.859 µM). Further, in the test on C. sake, the MFC came out at 3.91 µg/mL (≈ 14 µM) and the MIC was 0.48 µg/mL (≈ 1.72 µM). In the test with C. pulcherrima, the MFC is above 1000 µg/mL and the MIC was found to be 250 µg/mL (≈ 895 µM). For the same molecule, in the test with C. kefyr, the MFC came to 31.2 µg/mL (≈ 112 µM) and the MIC is 31.2 µg/mL (≈ 112 µM). For the same molecule, in the test on C. famata, the MFC is 62.5 µg/mL (≈ 224 µM) and the minimal inhibitory concentration (MIC) came out at 7.81 µg/mL (≈ 28 µM).
As to `N#Cc1ccc(-c2csc(N/N=C/C3CC3)n2)cc1` [Compound 3h, (E)-4-(2-(2-(Cyclopropylmethylene)hydrazinyl)thiazol-4-yl)benzonitrile], in test [1], the IC50 came out at 30.1 µg/mL (≈ 112 µM), the activity at 0.98 µg/mL is 86.1%, the activity at 1.95 µg/mL was found to be 83.3 ± 3.9% and the activity at 3.91 µg/mL came out at 79.6 ± 1.15%. Moreover, in test [1], the activity at 7.81 µg/mL was found to be 75.5 ± 4.89%, the activity at 15.63 µg/mL worked out at 65 ± 3.28%, the activity at 20 µg/mL worked out at 56.6 ± 1% and the activity at 25 µg/mL stood at 53.9 ± 6.64%. Also, the activity at 31.25 µg/mL in test [1] was found to be 43.81 ± 0.06%. In addition, in the test on C. glabrata, the MFC is above 1000 µg/mL and the MIC is 125 µg/mL (≈ 466 µM). For the same molecule, in the test with C. lambica, the MFC was above 1000 µg/mL and the MIC is 125 µg/mL (≈ 466 µM). Further, in the test with C. dubliniensis, the MFC was determined as 0.98 µg/mL (≈ 3.65 µM) and the MIC came out at 0.48 µg/mL (≈ 1.79 µM). Moreover, in the test on C. sake, the MFC worked out at 125 µg/mL (≈ 466 µM) and the MIC stood at 0.98 µg/mL (≈ 3.65 µM). In the test on C. pulcherrima, the MFC is above 1000 µg/mL and the MIC is 62.5 µg/mL (≈ 233 µM). In the test on C. kefyr, the MFC was 125 µg/mL (≈ 466 µM) and the MIC worked out at 7.81 µg/mL (≈ 29.1 µM). In the test on C. famata, the MFC came out at 3.91 µg/mL (≈ 14.6 µM) and the MIC came out at 1.95 µg/mL (≈ 7.27 µM).

Values taken from publication PMC6133161, “Thiazoles with cyclopropyl fragment as antifungal, anticonvulsant, and anti-Toxoplasma gondii agents: synthesis, toxicity evaluation, and molecular docking study” (Medicinal Chemistry Research, 2018).
